Source: publication PMC7460887, “Capsaicin-Cyclodextrin Complex Enhances Mepivacaine Targeting and Improves Local Anesthesia in Inflamed Tissues” (International Journal of Molecular Sciences, 2020)
Converted amounts (≈) assume the structure as drawn. Counter-ions that a name gives are not always drawn. Like-named read-outs stand apart in the source and are kept apart here.

Tests used:
[1] = cited from earlier work; for Ks with HP-β-CD (from phase solubility study): LA base form; for solubility increment of CAP: at least 10 times greater HP-β-CD concentrations
[2] = cited from earlier work
[3] = Phase solubility study of CAP with HP-β-CD; assay type: physicochemical
Experimental: The effects of HP-β-CD on the solubility of CAP was investigated according to the phase solubility method described by Higuchi and Connors. In this experiment increasing concentrations of CD (0–10 mM) were added to a saturated CAP solution. The solutions were left under magnetic stirring for 48 h (350 rpm and 25 °C). Aliquots of each vial were centrifuged for 10 min (4100× g) and the supernatant was filtered through 0.45 μm (Millipore, Burlington, Massachusetts, USA) and diluted to determine CAP concentration by UV absorption at 280 nm. The phase solubility diagram was obtained by plotting the solubility of CAP, versus the concentrations of HP-β-CD […]. The apparent stability constant (Ks) were calculated by Equation (1), where S0 is the aqueous molar solubility of the drug, taken from the Y intercept of the plot:(1) Ks=slope/S0(1−slope)
The complexation efficiency (CE) determines the adequate ratio of CDs to ensure maximum solubility of the complexed drug. For the CAP-HP-β-CD complex, CE was calculated from the phase solubility plots, according to Equation (2). The CE values allow drug/CD ratio in the formulation, according to Equation (3):(2) CE=slope/(1−slope) (3) Drug:CD=1/(CE+1)/CE

[4] = In vitro release, Franz-type vertical diffusion cell; assay type: physicochemical; settings: 37 °C, PBS pH 7.4, n = 3
Experimental: A “Franz-type” vertical diffusion cell system was used to evaluate the in vitro release of CAP, comparing the free (dissolved in 20% ethanolic solution) and complexed drug with HP-β-CD [26]. The diffusion system consists of two compartments: the donor one—containing 1 mL of the sample—and the acceptor compartment, containing 12 mL of buffer (10 mM phosphate buffered saline, pH 7.4) kept at 37 °C, under mild stirring to ensure sink condition. A cellulose membrane (Spectrapore, Los Angeles, 1000 Da molecular exclusion pore) separated the two compartments. Aliquots (200 μL) were withdrawn from the acceptor compartment at fixed intervals (15, 30, […], 60, and 90 min, and every hour for 6 h) and the volume was replaced with fresh medium. CAP was quantified by HPLC, in a Waters Breeze 2 System (Waters, Milford, Massachussets, USA) at 280 nm and 30 °C, using a Luna® C18 (2) reverse phase (25 × 4.6 mm, 5 μm) (Phenomenex, Torrance, California, USA), 30-µL injection volume, phosphoric acid (1:1000 v/v) and acetonitrile (7:3 v:v), at pH 2.4, and 1.0 mL/min flow rate.

[5] = DOSY NMR diffusion, complexed fraction and association constant; assay type: physicochemical
Experimental: DOSY is an experiment that separates the signals of a mixture of components according to the size and shape of the molecules. DOSY experiments were conducted with the pulse sequence ledbpgp2s, with a time diffusion of 0.06 s. […] The average acquisition time of the experiment was 40 min. The processing program (Dosy Toolbox) was run with data transformed using fn = 32 K. The diffusion coefficient and standard deviation of each species was given by the arithmetic mean of all coefficients of the same species. DOSY allows determination of the association constant (Ka), between guest molecules and CDs. Ka values are inferred from the complexed fraction (Fcomplexed) of the guest molecule, and both values were calculated accordingly to Equations (4) and (5), where Ddrug is the diffusion coefficient of the free drug, Dcomplex is the diffusion coefficient of the complex, Dcyclodextrin is the diffusion coefficient of free CD, and R is the molar concentration of non-complexed CD [25]:(4) Fcomplexed=[Ddrug−Dcomplex]/[Ddrug−Dciclodextrin] (5) Ka=[Ddrug−Dcomplex]/[Ddrug−Dciclodextrin] × R

[6] = test system: carrageenan-inflamed mice paw; experiment: Analgesia in inflamed tissue, carrageenan-induced hyperalgesia, mechanical allodynia in mice hind paw; assay type: in vivo, Male Swiss mice; settings: 2% solution, subplantar injection, 4 h after carrageenan
Experimental: The antinociceptive effect of the association between mepivacaine and complexed CAP (HP-β-CD-CAP) was evaluated in vivo. A sample of freeze-dried HP-β-CD-CAP was resuspended in 4 mL of mepivacaine hydrochloride solution (MVC) to final concentrations of 1.6 mM (0.05%) CAP and 2% MVC. MVC solution was previously sterilized by filtration 0.22 μm. (Millipore, Burlington, Massachusetts, USA). Male Swiss mice (30–35 g) were obtained from Centro de Bioterismo, University of Campinas, UNICAMP (CEMIB-UNICAMP, Campinas, São Paulo, Brazil) and housed in standard cages under a 12/12 h of light/dark cycle. All experiments were approved by the institutional animal care and use committee of Unicamp, meaning it follows the Brazilian national guideline, which is in line with the National Institutes of Health guide for the care and use of Laboratory animals (protocol # 4402-1).
The mechanical allodynia was analyzed in mice hind paw by a Dynamic Plantar Aesthesiometer (model 37450, Ugo Basile, Italy). The animals were placed in an elevated cage for 2 h before the test, for setting and training. […] The anesthetic formulations were then applied into the same subplantar region of the right paw of the mice, and the pain threshold was evaluated every 15 min. […] After the mechanical stimulus, the time elapsed until paw withdrawal as well as the applied pressure value were automatically recorded.

[7] = set-up: method as in PMID 19440843; settings: pure HP-β-CD 15% m/w; cited from earlier work
[8] = complexation with HP-β-CD, DOSY-NMR

Clc1ccc(COC(Cn2ccnc2)c2ccc(Cl)cc2Cl)c(Cl)c1 (centres unmarked) [miconazole]
molecules of HP-β-CD demanded for optimal complexation [1]: 12 molecules

Clc1ccccc1C(c1ccccc1)(c1ccccc1)n1ccnc1 [clotrimazole]
molecules of HP-β-CD demanded for optimal complexation [1]: 21 molecules

Cc1cccc(C)c1NC(=O)C1CCCCN1C (centres unmarked) [mepivacaine]
Ks with HP-β-CD (from phase solubility study) [1]: 38 M⁻¹

COc1cc(CNC(=O)CCCC/C=C/C(C)C)ccc1O [CAP, Capsaicin]
diffusion coefficient (D) [2]: 4.81 × 10^−10 m^2s^−1
improvement of apparent solubility of CAP [3]: up to 20 times
moles of HP-β-CD required per mole of drug to solubilize (D:CD, Equation (3)) [3]: 4.2 mol
solubility at 48 h ([3]; 25 °C, aqueous with cosolvent or surfactant or cyclodextrin, thermodynamic from solid): 2200 µM (≈ 672 µg/mL)
time of CAP release [4]: 5 h
solubility increment of CAP ([1]; at 27 °C): 160 times
solubility increment of CAP ([1]; at 37 °C): 147 times
diffusion coefficient (D) [5]: 4.94 × 10^−10 m^2s^−1

Cc1cccc(C)c1NC(=O)C1CCCCN1C (centres unmarked) [MVC, mepivacaine hydrochloride]
induction of anesthesia in inflamed paw [6]: did not induce anesthesia in mice at any time tested

CCCCN1CCCC[C@H]1C(=O)Nc1c(C)cccc1C [S-bupivacaine]
association constant (Ka) [2, 8]: 91 M⁻¹
complexed fraction (Fcomplexed) [2, 8]: 57%

CC(C)(C)c1ccc(C(O)CCCN2CCC(C(O)(c3ccccc3)c3ccccc3)CC2)cc1 (centres unmarked) [terfenadine]
molecules of HP-β-CD demanded for optimal complexation [1]: 4 molecules

CCCCN1CCCCC1C(=O)Nc1c(C)cccc1C (centres unmarked) [bupivacaine]
Ks with HP-β-CD (from phase solubility study) [1]: 95 M⁻¹

hydroxypropyl-β-cyclodextrin [HP-β-CD]
diffusion coefficient (D) [2]: 2.21 × 10^−10 m^2s^−1
HP-β-CD concentration above which aggregates start [1]: higher than 12 mM
diffusion coefficient (D) [5]: 2.00 × 10^−10 m^2s^−1
collapse temperature (Tc) [7]: −9.5 °C
